Source: patent US7723332B2, “Aryl sulfonamides useful for modulation of the progesterone receptor” (Wyeth LLC, priority 2007, dated 2010)

What follows are compounds tested on alkaline phosphatase activity in T47D cells (assay: Effects of progestins and antiprogestins on alkaline phosphatase activity in T47D cells). Settings: Homo sapiens; T47D alkaline phosphatase assay; antagonist mode in the presence of 1 nM progesterone; 24 hours.
Format: cell-based
Method: Effects of Progestins and Antiprogestins on Alkaline Phosphatase Activity in T47D Cells
This example was performed to identify progestins or antiprogestins by determining a compound's effect on alkaline phosphatase activity in T47D cells.
Culture medium: DMEM:F12 (1:1) (GIBCO, BRL) supplemented with 5% (v/v) charcoal stripped fetal bovine serum (not heat-inactivated), 100 U/mL penicillin, 100 μg/mL streptomycin, and 2 mM the GlutaMax™ reagent (GIBCO, BRL).
Alkaline phosphatase assay buffer: • I. 0.1M Tris-HCl, pH 9.8, containing 0.2% the Triton® X-100 reagent • II. 0.1 M Tris-HCl, pH 9.8, containing 4 mM p-nitrophenyl phosphate (Sigma).
Frozen T47D cells were thawed in a 37° C. water bath and diluted to 280,000 cells/mL in culture medium. To each well in a 96-well plate (Falcon, Becton Dickinson Labware), 180 μL of diluted cell suspension was added. Twenty μL of reference or test compounds diluted in the culture medium was then added to each well. When testing for progestin antagonist activity, reference antiprogestins or test compounds were added in the presence of 1 nM progesterone. The cells were incubated at 37° C. in a 5% CO2/humidified atmosphere for 24 hours. NOTE: For high throughput screening, one concentration of each compound was tested at 0.3 μg/mL. Based on an average molecular weight of 300 g/mol for the compounds in the library, the concentration was approximately 1 μM. Subsequently, active compounds were tested in dose response assays to determine EC50 and IC50.
At the end of treatment, the medium was removed from the plate. Fifty μL of assay buffer I was added to each well. The plates were shaken in a titer plate shaker for 15 minutes. 150 μL of assay buffer II was then added to each well. Optical density measurements were taken at 5 minute intervals for 30 minutes at a test wavelength of 405 nm.
For reference and test compounds, a dose response curve was generated for dose (X-axis) vs. the rate of enzyme reaction (slope) (Y-axis). Square root-transformed data was used for analysis of variance and nonlinear dose response curve fitting for both agonist and antagonist modes. Huber weighting was used to down-weight the effects of outliners. EC50 or IC50 values were calculated from the retransformed values. JMP software (SAS Institute, Inc.) was used for both one-way analysis of variance and non-4 linear dose response analysis in both single dose and dose response studies.
Progesterone and trimegestone are reference progestins known in the art and typically show an EC50 of about 0.1 nM to about 2.0 nM.

IC50 [nM] | Compound
13.9 | CNS(=O)(=O)c1ccc(-c2ccc(C#N)n2C)cc1 [Example 1, 4-(5-cyano-1-methyl-1H-pyrrol-2-yl)-N-methylbenzenesulfonamide]
81.3 | CN(C)S(=O)(=O)c1ccc(-c2ccc(C#N)n2C)cc1 [Example 2, 4-(5-cyano-1-methyl-1H-pyrrol-2-yl)-N,N-dimethylbenzenesulfonamide]
11.4 | CCNS(=O)(=O)c1ccc(-c2ccc(C#N)n2C)cc1 [Example 3, 4-(5-cyano-1-methyl-1H-pyrrol-2-yl)-N-ethylbenzenesulfonamide]
23.8 | CCCNS(=O)(=O)c1ccc(-c2ccc(C#N)n2C)cc1 [Example 4, 4-(5-cyano-1-methyl-1H-pyrrol-2-yl)-N-propylbenzenesulfonamide]
27.5 | CC(C)NS(=O)(=O)c1ccc(-c2ccc(C#N)n2C)cc1 [Example 5, 4-(5-cyano-1-methyl-1H-pyrrol-2-yl)-N-isopropylbenzenesulfonamide]
47.9 | CC(C)CNS(=O)(=O)c1ccc(-c2ccc(C#N)n2C)cc1 [Example 6, 4-(5-cyano-1-methyl-1H-pyrrol-2-yl)-N-isobutylbenzenesulfonamide]
66.1 | CCN(C)S(=O)(=O)c1ccc(-c2ccc(C#N)n2C)cc1 [Example 7, 4-(5-cyano-1-methyl-1H-pyrrol-2-yl)-N-ethyl-N-methylbenzenesulfonamide]
48.4 | CCN(CC)S(=O)(=O)c1ccc(-c2ccc(C#N)n2C)cc1 [Example 8, 4-(5-cyano-1-methyl-1H-pyrrol-2-yl)-N,N-diethylbenzenesulfonamide]
146 | Cn1c(C#N)ccc1-c1ccc(S(=O)(=O)N2CCCC2)cc1 [Example 10, 1-methyl-5-[4-(pyrrolidin-1-ylsulfonyl)phenyl]-1H-pyrrole-2-carbonitrile]
132 | Cn1c(C#N)ccc1-c1ccc(S(=O)(=O)N2CCCCC2)cc1 [Example 11, 1-methyl-5-[4-(piperidin-1-ylsulfonyl)phenyl]-1H-pyrrole-2-carbonitrile]
189 | Cn1c(C#N)ccc1-c1ccc(S(=O)(=O)N2CCOCC2)cc1 [Example 12, 1-methyl-5-[4-(morpholin-4-ylsulfonyl)phenyl]-1H-pyrrole-2-carbonitrile]
13.9 | Cn1c(C#N)ccc1-c1ccc(S(=O)(=O)NC2CCC2)cc1 [Example 13, 4-(5-cyano-1-methyl-1H-pyrrol-2-yl)-N-cyclobutylbenzenesulfonamide]
6.6 | Cn1c(C#N)ccc1-c1ccc(S(=O)(=O)NC2CC2)cc1 [Example 14, 4-(5-cyano-1-methyl-1H-pyrrol-2-yl)-N-cyclopropylbenzenesulfonamide]
58.9 | Cn1c(C#N)ccc1-c1ccc(S(=O)(=O)NC2CCCCC2)cc1 [Example 15, 4-(5-cyano-1-methyl-1H-pyrrol-2-yl)-N-cyclohexylbenzenesulfonamide]
40.8 | Cn1c(C#N)ccc1-c1ccc(S(=O)(=O)NCC(F)(F)F)cc1 [Example 16, 4-(5-cyano-1-methyl-1H-pyrrol-2-yl)-N-(2,2,2-trifluoroethyl)benzenesulfonamide]
27.6 | Cn1c(C#N)ccc1-c1ccc(S(=O)(=O)NCC2CC2)cc1 [Example 17, 4-(5-cyano-1-methyl-1H-pyrrol-2-yl)-N-(cyclopropylmethyl)benzenesulfonamide]
48.1 | Cn1c(C#N)ccc1-c1ccc(S(=O)(=O)n2cccc2)cc1 [Example 18, 1-methyl-5-[4-(1H-pyrrol-1-ylsulfonyl)phenyl]-1H-pyrrole-2-carbonitrile]
35.8 | Cn1c(C#N)ccc1-c1ccc(S(N)(=O)=O)c(C(F)(F)F)c1 [Example 19, 4-(5-cyano-1-methyl-1H-pyrrol-2-yl)-2-(trifluoromethyl)benzenesulfonamide]
81.9 | CN(C)S(=O)(=O)c1ccc(-c2ccc(C#N)n2C)cc1C(F)(F)F [Example 20, 4-(5-cyano-1-methyl-1H-pyrrol-2-yl)-N,N-dimethyl-2-(trifluoromethyl)benzenesulfonamide]

IC50 [nM] | Compound
80.4 | CCN(CC)S(=O)(=O)c1ccc(-c2ccc(C#N)n2C)cc1C(F)(F)F [Example 22, 4-(5-cyano-1-methyl-1H-pyrrol-2-yl)-N,N-diethyl-2-(trifluoromethyl)benzenesulfonamide]
77.1 | CC(C)NS(=O)(=O)c1ccc(-c2ccc(C#N)n2C)cc1C(F)(F)F [Example 23, 4-(5-cyano-1-methyl-1H-pyrrol-2-yl)-N-isopropyl-2-(trifluoromethyl)benzenesulfonamide]
45.8 | CCNS(=O)(=O)c1ccc(-c2ccc(C#N)n2C)cc1C(F)(F)F [Example 24, 4-(5-cyano-1-methyl-1H-pyrrol-2-yl)-N-ethyl-2-(trifluoromethyl)benzenesulfonamide]
17.3 | CCCNS(=O)(=O)c1ccc(-c2ccc(C#N)n2C)cc1C(F)(F)F [Example 25, 4-(5-cyano-1-methyl-1H-pyrrol-2-yl)-N-propyl-2-(trifluoromethyl)benzenesulfonamide]
115 | Cn1c(C#N)ccc1-c1ccc(S(=O)(=O)N2CCCC2)c(C(F)(F)F)c1 [Example 26, 1-methyl-5-[4-(pyrrolidin-1-ylsulfonyl)-3-(trifluoromethyl)phenyl]-1H-pyrrole-2-carbonitrile]
38.2 | Cn1c(C#N)ccc1-c1ccc(S(=O)(=O)NC2CC2)c(C(F)(F)F)c1 [Example 27, 4-(5-cyano-1-methyl-1H-pyrrol-2-yl)-N-cyclopropyl-2-(trifluoromethyl)benzenesulfonamide]
34.9 | Cn1c(C#N)ccc1-c1ccc(S(=O)(=O)NCC2CC2)c(C(F)(F)F)c1 [Example 28, 4-(5-cyano-1-methyl-1H-pyrrol-2-yl)-N-(cyclopropylmethyl)-2-(trifluoromethyl)benzenesulfonamide]
17 | Cn1c(C#N)ccc1-c1ccc(S(=O)(=O)NC2CCC2)c(C(F)(F)F)c1 [Example 29, 4-(5-cyano-1-methyl-1H-pyrrol-2-yl)-N-cyclobutyl-2-(trifluoromethyl)benzenesulfonamide]
91 | Cn1c(C#N)ccc1-c1ccc(S(N)(=O)=O)cc1F [Example 30, 4-(5-cyano-1-methyl-1H-pyrrol-2-yl)-3-fluorobenzenesulfonamide]
8.5 | CNS(=O)(=O)c1ccc(-c2ccc(C#N)n2C)c(F)c1 [Example 31, 4-(5-cyano-1-methyl-1H-pyrrol-2-yl)-3-fluoro-N-methylbenzenesulfonamide]
128 | CN(C)S(=O)(=O)c1ccc(-c2ccc(C#N)n2C)c(F)c1 [Example 32, 4-(5-cyano-1-methyl-1H-pyrrol-2-yl)-3-fluoro-N,N-dimethylbenzenesulfonamide]
13.1 | CCNS(=O)(=O)c1ccc(-c2ccc(C#N)n2C)c(F)c1 [Example 33, 4-(5-cyano-1-methyl-1H-pyrrol-2-yl)-N-ethyl-3-fluorobenzenesulfonamide]
65.6 | CCN(CC)S(=O)(=O)c1ccc(-c2ccc(C#N)n2C)c(F)c1 [Example 34, 4-(5-cyano-1-methyl-1H-pyrrol-2-yl)-N,N-diethyl-3-fluorobenzenesulfonamide]
26.8 | CC(C)NS(=O)(=O)c1ccc(-c2ccc(C#N)n2C)c(F)c1 [Example 35, 4-(5-cyano-1-methyl-1H-pyrrol-2-yl)-3-fluoro-N-isopropylbenzenesulfonamide]
26.5 | CCCNS(=O)(=O)c1ccc(-c2ccc(C#N)n2C)c(F)c1 [Example 36, 4-(5-cyano-1-methyl-1H-pyrrol-2-yl)-3-fluoro-N-propylbenzenesulfonamide]
151 | Cn1c(C#N)ccc1-c1ccc(S(=O)(=O)N2CCCC2)cc1F [Example 37, 5-[2-fluoro-4-(pyrrolidin-1-ylsulfonyl)phenyl]-1-methyl-1H-pyrrole-2-carbonitrile]
9.7 | Cn1c(C#N)ccc1-c1ccc(S(=O)(=O)NC2CC2)cc1F [Example 38, 4-(5-cyano-1-methyl-1H-pyrrol-2-yl)-N-cyclopropyl-3-fluorobenzenesulfonamide]
40.4 | Cn1c(C#N)ccc1-c1ccc(S(=O)(=O)NCC2CC2)cc1F [Example 39, 4-(5-cyano-1-methyl-1H-pyrrol-2-yl)-N-(cyclopropylmethyl)-3-fluorobenzenesulfonamide]

Same assay, conditions: T47D alkaline phosphatase assay; antagonist mode in the presence of 1 nM progesterone; 24 hours

Compound | Active Dose [µM]
Cn1c(C#N)ccc1-c1ccc(S(=O)(=O)NC(C)(C)C)cc1 [Example 9, N-(tert-butyl)-4-(5-cyano-1-methyl-1H-pyrrol-2-yl)benzenesulfonamide] | 10
